Measured values published in article PMC2613833 (Bioorganic & medicinal chemistry, 2008).
Structures can show the parent of a compound that is named as a salt. Where two headings read alike, the source gives them in different places.

Columns and labels:
[1] = target: T1, estrogen receptor α (ERα) (Homo sapiens, UniProt P03372); assay: Luciferase reporter gene assay; assay type: cell-based; details: for IC50: HEC-1 cells, full-length ERα, 1 nM estradiol, 24 h
T1 sequence (P03372 1-595): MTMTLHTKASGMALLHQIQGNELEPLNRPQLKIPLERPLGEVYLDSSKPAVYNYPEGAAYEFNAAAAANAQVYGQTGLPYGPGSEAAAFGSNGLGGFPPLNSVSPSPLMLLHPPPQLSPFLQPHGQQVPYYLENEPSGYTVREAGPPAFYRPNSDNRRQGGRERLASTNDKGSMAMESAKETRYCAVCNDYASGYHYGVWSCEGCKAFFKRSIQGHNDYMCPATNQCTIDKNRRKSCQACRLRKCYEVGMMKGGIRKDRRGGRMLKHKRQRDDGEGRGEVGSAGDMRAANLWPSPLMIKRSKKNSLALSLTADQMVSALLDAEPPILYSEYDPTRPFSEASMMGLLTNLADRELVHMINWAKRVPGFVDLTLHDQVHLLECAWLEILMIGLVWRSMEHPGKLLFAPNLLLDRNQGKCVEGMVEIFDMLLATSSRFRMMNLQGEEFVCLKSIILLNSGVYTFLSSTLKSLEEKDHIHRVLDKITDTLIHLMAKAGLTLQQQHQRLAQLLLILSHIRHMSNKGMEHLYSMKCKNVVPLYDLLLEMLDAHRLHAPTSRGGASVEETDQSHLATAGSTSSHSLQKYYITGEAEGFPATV

[2] = target: T2, Gal4-SRC-1NRD / ERαDEF-VP16 (Homo sapiens, UniProt P03372); assay: Mammalian two hybrid; assay type: cell-based; details: read-out: IC50, CBI inhibition in the M2H assay; HEC-1 cells, 1 nM estradiol, 24 h
T2 sequence (P03372 264-595 limits assumed): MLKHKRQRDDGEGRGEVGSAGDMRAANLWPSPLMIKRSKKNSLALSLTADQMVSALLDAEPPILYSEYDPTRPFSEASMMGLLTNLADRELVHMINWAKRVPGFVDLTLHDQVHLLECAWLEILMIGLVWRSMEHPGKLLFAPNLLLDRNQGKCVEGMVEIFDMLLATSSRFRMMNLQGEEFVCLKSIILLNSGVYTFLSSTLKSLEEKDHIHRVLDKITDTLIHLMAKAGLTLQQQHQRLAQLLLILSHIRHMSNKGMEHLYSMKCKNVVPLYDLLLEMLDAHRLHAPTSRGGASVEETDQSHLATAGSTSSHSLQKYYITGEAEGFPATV

[3] = system: ER transactivation in human breast cancer MCF-7 cells; details: cited from earlier work
ERα = target: T3, ERα (Homo sapiens, UniProt P03372); assay: Covalent attachment test, ESI mass spectrometry of ER after incubation; details: 30 min at 4 °C in phosphate-buffered saline, dialysis overnight, low-res ESI
T3 sequence (P03372 1-595): T1 sequence (P03372 1-595)

ER = details: read-out: IC50, CBI activity against ER; mammalian two-hybrid (M2H) assay; cited from earlier work
[4] = target: T4, recombinant estrogen receptor ligand binding domain / fluorescein-labeled SRC peptide (Homo sapiens, UniProt P03372); assay: Fluorescence polarization assay of ER/coactivator interaction; details: 1 μM estradiol, Figure 1
T4 sequence (P03372 311-547 limits assumed): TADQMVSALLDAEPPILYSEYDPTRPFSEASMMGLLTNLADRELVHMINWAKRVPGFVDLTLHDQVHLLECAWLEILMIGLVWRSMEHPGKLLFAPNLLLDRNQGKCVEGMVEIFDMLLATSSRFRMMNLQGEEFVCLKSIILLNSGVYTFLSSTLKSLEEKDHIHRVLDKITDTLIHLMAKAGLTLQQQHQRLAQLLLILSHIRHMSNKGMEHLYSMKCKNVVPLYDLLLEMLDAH

[5] = read-out: IC50, CBI inhibition of reporter gene activity
[6] = IC50, CBI inhibition of reporter gene activity

“1-(1-Chloro-3,4-dihydro-naphthalen-2-yl)-ethanone aminoguanylhydrazone HCl [compound 33]” gave an IC50 [1, 5] of at least 50 µM.
With “3-Chloro-3-naphthalen-1-yl-propenal aminoguanylhydrazone HCl [compound 30]” the IC50 [2] was at least 50 µM and the IC50 [1, 5] was at least 50 µM.
For N=C(N)N/N=C/C1=C(Cl)c2ccccc2CC1 [compound 1, 1-Chloro-3,4-dihydronaphthalene-2-carboxaldehyde aminoguanylhydrazone HCl], the ER transactivation [3] is listed as “inhibited ER transactivation”, the “change in molecular weight of ER (covalent attachment)” value (ERα) is listed as “no change in molecular weight was observed” and the IC50 (ER) is listed as 5.5 µM. The “inhibition of ER/coactivator interaction” value [4] was “Dose-dependent inhibition”.
Cc1cc(C)c2c(c1)C(Cl)=C(/C=N/NC(=N)N)CC2 [compound 20, 1-Chloro-5,7-dimethyl-3,4-dihydronaphthalene-2-carboxaldehyde aminoguanylhydrazone HCl] gave an IC50 [1, 6] of 1.2 ± 0.1 µM.
In the case of CC1CC(/C=N/NC(=N)N)=C(Cl)c2ccccc21 (centres unmarked) [compound 21, 1-Chloro-3-dihydro-4-methylnaphthalene-2-carboxaldehyde aminoguanylhydrazone HCl], the IC50 [1, 6] is reported as 1.5 µM.
In the case of N=C(N)N/N=C/C1=C(Cl)c2ccccc2CCC1 [compound 23, 9-Chloro-6,7-dihydro-5-benzocycloheptene-8-carboxaldehyde aminoguanylhydrazone HCl], the IC50 [1, 6] is reported as 3.3 ± 0.8 µM and the “inhibition of ER/coactivator interaction” value [4] is reported as “Dose-dependent inhibition”.
N=C(N)N/N=C/C1=C(Br)c2ccccc2CC1 [compound 24, 1-Bromo-3,4-dihydronaphthalene-2-carboxaldehyde aminoguanylhydrazone HCl] gave an IC50 [1, 6] of 7.8 ± 0.1 µM.
With COC1=C(/C=N/NC(=N)N)CCc2ccccc21 [compound 25, 1-Methoxy-3,4-dihydronaphthalene-2-carboxaldehyde aminoguanylhydrazone HCl] the IC50 [1, 6] was 3.1 ± 0.8 µM.
Work on N=C(N)N/N=C/C1=C(Oc2ccccc2)c2ccccc2CC1 [compound 26, 1-Phenoxy-3,4-dihydronaphthalene-2-carboxaldehyde aminoguanylhydrazone HCl] yielded an IC50 [1, 6] of 3.5 ± 1.1 µM.
N=C(N)N/N=C/C1=C(C(F)(F)F)c2ccccc2CC1 [compound 27, 1-(1,1,1,-Trifluoromethyl)-3,4-dihydronaphthalene-2-carboxaldehyde aminoguanylhydrazone HCl] showed an IC50 [1, 6] of 12 µM.
With CC(/C=N/NC(=N)N)=C(/Cl)c1ccccc1 [compound 29, β-Chloro-α-methylcinnamaldehyde aminoguanylhydrazone HCl] the IC50 [1, 6] was 1.4 ± 0.4 µM and the “inhibition of ER/coactivator interaction” value [4] was “Dose-dependent inhibition”.
N=C(N)N/N=C/c1cccc2ccccc12 [compound 31, 2-(1-Naphthalenylmethylene) hydrazinecarboximidamide HCl] gave an IC50 [1, 6] of 7.5 µM.
Work on N=C(N)N/N=C/c1ccc2ccccc2c1 [compound 32, 2-(2-Naphthalenylmethylene)hydrazinecarboximidamide HCl] yielded an IC50 [1, 6] of 7.5 ± 0.5 µM.
For hydroxytamoxifen [reference compound], the “increase in IC50 with a 100-fold higher estradiol concentration” value ([1]; reporter gene assay, 1 nM vs 100 nM estradiol, Figure 4b) was 100 fold.
